Where “and” joins values, the source holds several entries; their conditions need not be identical. Identical values can stand only once.
Legend:
Format in all cases: in vivo
[1] = test system: LPS-induced septic shock in mice; assay: comparative trial MTR and AQGV from two sources, LPS sickness scores; parameters: key to Sickness Score, individual mouse: 0: No abnormalities.; 1: Percolated fur, but no detectable behavior differences compared to normal mice.; 2: Percolated fur, huddle reflex, responds to stimuli (such as tap on cage), just as active during handling as healthy mouse.; 3: Slower response to tap on cage, passive or docile when handled, but still curious when alone in a new setting.; 4: Lack of curiosity, little or no response to stimuli, quite immobile.; 5: Labored breathing, inability or slow to self-right after being rolled onto back (moribund, sacrificed).; Dead; details: LPS 10-11 mg/kg; for Survival %: group of six
Text: Mice were scored for sickness severity using the following measurement scheme: • 0 No abnormalities. • 1 Percolated fur, but no detectable behavior differences compared to normal mice. • 2 Percolated fur, huddle reflex, responds to stimuli (such as tap on cage), just as active during handling as healthy mouse. • 3 Slower response to tap on cage, passive or docile when handled, but still curious when alone in a new setting. • 4 Lack of curiosity, little or no response to stimuli, quite immobile. • 5 Labored breathing, inability or slow to self-right after being rolled onto back (moribund, sacrificed). • D Dead.
A comparative trial was set up to compare peptide MTR and AQGV (SEQ ID NO:120), each obtained from two commercial sources. The comparative trial comprised six groups of six animals; two groups (1A and 1B) receiving placebo (PBS), one group ([…]), one group (3) receiving peptide MTR (source Ansynth), one group (4) receiving peptide AQGV (SEQ ID NO:120) (source Pepscan) and one group (5) receiving peptide AQGV (SEQ ID NO:120) (source Ansynth). Peptide/placebo in these groups was administered two hours after LPS. LPS (source) was used at 10 to 11 mg/kg. Sickness scores were done at 0, 2, 22, 26, 42, and 48 hours after LPS injection.
Comparative trial MTR and AQGV (SEO ID NO:120), each derived from two sources, all at 5 mg/kg.

[2] = test system: BALB/c mice exposed whole body to 10 Gy 137Cs-γ-irradiation; assay: Whole body γ-irradiation (10 Gy), peptide 1.5 hours before irradiation; details: 10 mg/kg i.p. 1.5 hours before 10 Gy; for Watery eyes / Weight loss: affected/total; for Mortality: dead/total
Experimental: (§1) In the first experiment, 12-week-old female BALB/c mice were treated intraperitoneally with a single injection of either PBS (n=9) or with a peptide (LQGV (SEQ ID NO:117), VLPALP (SEQ ID NO:140), LPGCPRGVNPVVS (SEQ ID NO:114), MTRVLQGVLPALPQVVC (SEQ ID NO:113); n=8, 10 mg/kg). One and a half hours after the treatment, mice were exposed whole body to a single dose of 10 Gy ^137Cs-γ-irradiation. In the second experiment, 12-week-old female BALB/c mice were first exposed whole body to a single dose of 10 Gy ^137Cs-γ-irradiation and then 1.5 hours after the irradiation treated intraperitoneally with a single injection of either PBS (n=9) or with a peptide (n=8 or 9, 10 mg/kg).

[3] = test system: BALB/c mice exposed whole body to 10 Gy 137Cs-γ-irradiation; assay: Whole body γ-irradiation (10 Gy), peptide 1.5 hours after irradiation; details: 10 mg/kg i.p. 1.5 hours after 10 Gy; for Watery eyes / Weight loss: affected/total; for Mortality: dead/total
Experimental: as §1

[4] = 0 hours (LPS treatment), peptide from Ansynth (#Ansynth 12, #Ansynth 46) 5 mg/kg
[5] = 0 hours (LPS treatment), peptide from Diosynth BV (#970, #971) 5 mg/kg
[6] = 2 hours (compound treatment), peptide from Ansynth (#Ansynth 12, #Ansynth 46) 5 mg/kg
[7] = 2 hours (compound treatment), peptide from Diosynth BV (#970, #971) 5 mg/kg
[8] = 22 hours, peptide from Ansynth (#Ansynth 12, #Ansynth 46) 5 mg/kg
[9] = 22 hours, peptide from Diosynth BV (#970, #971) 5 mg/kg
[10] = 26 hours, peptide from Ansynth (#Ansynth 12, #Ansynth 46) 5 mg/kg
[11] = 26 hours, peptide from Diosynth BV (#970, #971) 5 mg/kg
[12] = 42 hours, peptide from Ansynth (#Ansynth 12, #Ansynth 46) 5 mg/kg
[13] = 42 hours, peptide from Diosynth BV (#970, #971) 5 mg/kg
[14] = 48 hours, peptide from Ansynth (#Ansynth 12, #Ansynth 46) 5 mg/kg
[15] = 48 hours, peptide from Diosynth BV (#970, #971) 5 mg/kg
[16] = peptide from Ansynth (#Ansynth 12, #Ansynth 46) 5 mg/kg
[17] = peptide from Diosynth BV (#970, #971) 5 mg/kg

Row | Substance | Sickness Score, individual mouse [1, 4] | Sickness Score, individual mouse [1, 5] | Sickness Score, individual mouse [1, 6] | Sickness Score, individual mouse [1, 7] | Sickness Score, individual mouse [1, 8] | Sickness Score, individual mouse [1, 9] | Sickness Score, individual mouse [1, 10] | Sickness Score, individual mouse [1, 11] | Sickness Score, individual mouse [1, 12] | Sickness Score, individual mouse [1, 13] | Sickness Score, individual mouse [1, 14] | Sickness Score, individual mouse [1, 15] | Survival % [1, 16] [%] | Survival % [1, 17] [%] | Watery eyes ([2]; day 0 after irradiation) | Weight loss ([2]; day 0 after irradiation) | Mortality ([2]; day 0 after irradiation) | Mortality ([2]; day 3 after irradiation) | Watery eyes ([2]; day 4 after irradiation) | Weight loss ([2]; day 4 after irradiation) | also measured
1 | MTR | 0 | 0 | 2 | 2 | 2 (4×) and 4 and 3 | dead and 3 and 2 (3×) and 4 | 1 and 2 (2×) and 5 and 4 and 3 | 3 and 2 (3×) and 5 | 1 and 2 (2×) and dead and 4 and 5 | 5 and 2 (2×) and 4 and dead | 1 (2×) and dead (2×) and 2 | dead (2×) and 2 (2×) | 50 | 33 | – | – | – | – | – | – | –
2 | VLPALP (hexamer peptide) | – | – | – | – | – | – | – | – | – | – | – | – | – | – | 0/8 | 0/8 | 0/8 | 0/8 | 0/8 | 8/8 | Mortality ([2]; day 4 after irradiation): 0/8; Mortality ([2]; day 5 after irradiation): 0/8; Mortality ([2]; day 6 after irradiation): 7/8; Mortality ([2]; day 7 after irradiation): 8/8; Watery eyes ([3]; day 0 after irradiation): 0/9; Weight loss ([3]; day 0 after irradiation): 0/9; Mortality ([3]; day 0 after irradiation): 0/9; Mortality ([3]; day 3 after irradiation): 0/9; Watery eyes ([3]; day 4 after irradiation): 0/9; Weight loss ([3]; day 4 after irradiation): 9/9; Mortality ([3]; day 4 after irradiation): 0/9; Mortality ([3]; day 5 after irradiation): 0/9; Mortality ([3]; day 6 after irradiation): 3/9; Mortality ([3]; day 7 after irradiation): 9/9
3 | LQGV | – | – | – | – | – | – | – | – | – | – | – | – | – | – | 0/8 | 0/8 | 0/8 | 0/8 | 0/8 | 8/8 | Mortality ([2]; day 4 after irradiation): 0/8; Mortality ([2]; day 5 after irradiation): 0/8; Mortality ([2]; day 6 after irradiation): 7/8; Mortality ([2]; day 7 after irradiation): 8/8; Watery eyes ([3]; day 0 after irradiation): 0/9; Weight loss ([3]; day 0 after irradiation): 0/9; Mortality ([3]; day 0 after irradiation): 0/9; Mortality ([3]; day 3 after irradiation): 0/9; Watery eyes ([3]; day 4 after irradiation): 3/9; Weight loss ([3]; day 4 after irradiation): 9/9; Mortality ([3]; day 4 after irradiation): 0/9; Mortality ([3]; day 5 after irradiation): 1/9; Mortality ([3]; day 6 after irradiation): 6/9; Mortality ([3]; day 7 after irradiation): 9/9
4 | AQGV | 0 | 0 | 2 | 2 | 3 (2×) and 2 (3×) and 4 | 2 (4×) and 3 and 4 | 3 (2×) and 2 (3×) and 4 | 2 (3×) and 3 (2×) and 5 | 2 and 3 and 1 (3×) and 5 | 2 (5×) and dead | 1 (5×) and dead | 2 (3×) and 1 (2×) | 83 | 83 | – | – | – | – | – | – | –

— patent US7795226B2, “Control of radiation injury” (Biotempt B.V., priority 2006, dated 2010)
